Assay results from EP2987533B1, “7-substituted piperazin-1-yl fluoroquinolone compounds, their use in the treatment of cancer, pharmaceutical compositions and a method for preparation” (priority 2014, dated 2016).

How the values were obtained:
Test in all cases: NCI five-dose SRB growth assay
Assay type in all cases: cell-based
K-562 = conditions: Homo sapiens, K562; K-562 (Leukemia), 48 h
OVCAR-3 = conditions: Homo sapiens; OVCAR-3 (Ovarian Cancer), 48 h
DU-145 = conditions: Homo sapiens; DU-145 (Prostate Cancer), 48 h
TK-10 = conditions: Homo sapiens; TK-10 (Renal Cancer), 48 h
HCC-2998 = conditions: Homo sapiens; HCC-2998 (Colon Cancer), 48 h
PC-3 = conditions: Homo sapiens; PC-3 (Prostate Cancer), 48 h
MALME-3M = conditions: Homo sapiens; MALME-3M (Melanoma), 48 h
PRMI-8226 = conditions: Homo sapiens; PRMI-8226 (Leukemia), 48 h
NCI-H226 = conditions: Homo sapiens; NCI-H226 (Non-Small Cell Lung Cancer), 48 h
NCI/ADR-RES = conditions: Homo sapiens; NCI/ADR-RES (Ovarian Cancer), 48 h
MOLT-4 = conditions: Homo sapiens; MOLT-4 (Leukemia), 48 h
RXF 393 = conditions: Homo sapiens; RXF 393 (Renal Cancer), 48 h
NCI-H522 = conditions: Homo sapiens; NCI-H522 (Non-Small Cell Lung Cancer), 48 h
SW-620 = conditions: Homo sapiens; SW-620 (Colon Cancer), 48 h
UACC-257 = conditions: Homo sapiens; UACC-257 (Melanoma), 48 h
MDA-MB-468 = conditions: Homo sapiens; MDA-MB-468 (Breast Cancer), 48 h
OVCAR-5 = conditions: Homo sapiens; OVCAR-5 (Ovarian Cancer), 48 h
CCRF-CEM = conditions: Homo sapiens; CCRF-CEM (Leukemia), 48 h
U251 = conditions: Homo sapiens, U-251; U251 (CNS Cancer), 48 h
HCT-15 = conditions: Homo sapiens; HCT-15 (Colon Cancer), 48 h
OVCAR-4 = conditions: Homo sapiens; OVCAR-4 (Ovarian Cancer), 48 h
A498 = conditions: Homo sapiens; A498 (Renal Cancer), 48 h
A549/ATCC = conditions: Homo sapiens; A549/ATCC (Non-Small Cell Lung Cancer), 48 h
SK-MEL-28 = conditions: Homo sapiens; SK-MEL-28 (Melanoma), 48 h
IGROV1 = conditions: Homo sapiens, IGROV-1; IGROV1 (Ovarian Cancer), 48 h
SK-MEL-2 = conditions: Homo sapiens; SK-MEL-2 (Melanoma), 48 h
LOX IMVI = conditions: Homo sapiens; LOX IMVI (Melanoma), 48 h
NCI-H23 = conditions: Homo sapiens; NCI-H23 (Non-Small Cell Lung Cancer), 48 h
NCI-H460 = conditions: Homo sapiens; NCI-H460 (Non-Small Cell Lung Cancer), 48 h
SK-OV-3 = conditions: Homo sapiens; SK-OV-3 (Ovarian Cancer), 48 h
SNB-19 = conditions: Homo sapiens; SNB-19 (CNS Cancer), 48 h
CAKI-1 = conditions: Homo sapiens; CAKI-1 (Renal Cancer), 48 h
HT29 = conditions: Homo sapiens, HT-29; HT29 (Colon Cancer), 48 h
HL-60(TB) = conditions: Homo sapiens; HL-60(TB) (Leukemia), 48 h
MCF7 = conditions: Homo sapiens; MCF7 (Breast Cancer), 48 h
OVCAR-8 = conditions: Homo sapiens; OVCAR-8 (Ovarian Cancer), 48 h
M14 = conditions: Homo sapiens; M14 (Melanoma), 48 h
NCI-H322M = conditions: Homo sapiens; NCI-H322M (Non-Small Cell Lung Cancer), 48 h
HOP-92 = conditions: Homo sapiens; HOP-92 (Non-Small Cell Lung Cancer), 48 h

Row | SMILES | GI50 (OVCAR-3) | GI50 (DU-145) | GI50 (TK-10) | GI50 (HCC-2998) | GI50 (PRMI-8226) | GI50 (NCI-H226) | GI50 (NCI/ADR-RES) | GI50 (RXF 393) | GI50 (NCI-H522) | GI50 (SW-620) | GI50 (UACC-257) | GI50 (MDA-MB-468) | GI50 (CCRF-CEM) | GI50 (U251) | GI50 (HCT-15) | GI50 (OVCAR-4) | GI50 (A498) | GI50 (A549/ATCC) | GI50 (IGROV1) | GI50 (LOX IMVI) | other results
1 | CCn1cc(C(=O)O)c(=O)c2cc(F)c(N3CCN(S(=O)(=O)c4ccc(Cl)cc4)CC3)cc21 [Compound 1a] | 3510 nM | 4110 nM | 3730 nM | 4100 nM | 3080 nM | 3020 nM | 2980 nM | 3320 nM | 1730 nM | 3430 nM | 2160 nM | 2100 nM | 2930 nM | 3100 nM | 3620 nM | 2200 nM | 1810 nM | 2810 nM | 3140 nM | 2400 nM | GI50 (K-562): 2910 nM; GI50 (PC-3): 2310 nM; GI50 (MALME-3M): 1990 nM; GI50 (MOLT-4): 3830 nM; GI50 (OVCAR-5): 4250 nM; GI50 (SK-MEL-28): 4880 nM; GI50 (SK-MEL-2): 2570 nM; GI50 (NCI-H23): 2670 nM; GI50 (NCI-H460): 3160 nM; GI50 (SK-OV-3): 3280 nM; GI50 (SNB-19): 3970 nM; GI50 (CAKI-1): 2750 nM; GI50 (HT29): 2640 nM; GI50 (HL-60(TB)): 2180 nM; GI50 (MCF7): 2970 nM; GI50 (OVCAR-8): 2800 nM; GI50 (M14): 2850 nM
2 | CCn1cc(C(=O)O)c(=O)c2cc(F)c(N3CCN(S(=O)(=O)c4ccc(Cl)cc4Cl)CC3)cc21 [Compound 2a] | 2540 nM | 2810 nM | 4020 nM | 2290 nM | 2550 nM | 2600 nM | 3280 nM | 2080 nM | 1810 nM | 3910 nM | 2650 nM | 1980 nM | 3030 nM | 3300 nM | 2820 nM | 2580 nM | 2990 nM | 2890 nM | 2330 nM | 1480 nM | GI50 (K-562): 4000 nM; GI50 (PC-3): 2430 nM; GI50 (MALME-3M): 1950 nM; GI50 (MOLT-4): 3550 nM; GI50 (OVCAR-5): 3430 nM; GI50 (NCI-H322M): 2860 nM; GI50 (SK-MEL-28): 3210 nM; GI50 (HOP-92): 1220 nM; GI50 (SK-MEL-2): 2750 nM; GI50 (NCI-H23): 2330 nM; GI50 (NCI-H460): 3130 nM; GI50 (SK-OV-3): 3000 nM; GI50 (SNB-19): 3070 nM; GI50 (CAKI-1): 2010 nM; GI50 (HT29): 3630 nM; GI50 (HL-60(TB)): 2220 nM; GI50 (MCF7): 2950 nM; GI50 (OVCAR-8): 3300 nM; GI50 (M14): 3240 nM
3 | O=C(O)c1cn(C2CC2)c2cc(N3CCN(S(=O)(=O)c4ccc(Cl)c(Cl)c4)CC3)c(F)cc2c1=O [Compound 3b] | 3900 nM | 4310 nM | 4310 nM | 4470 nM | 2530 nM | 3580 nM | 4010 nM | 2980 nM | 1990 nM | 4050 nM | 2480 nM | 2250 nM | 2610 nM | 3330 nM | 3300 nM | 2280 nM | 2910 nM | 3080 nM | 2730 nM | 1440 nM | GI50 (K-562): 3920 nM; GI50 (PC-3): 2460 nM; GI50 (MALME-3M): 2300 nM; GI50 (MOLT-4): 4000 nM; GI50 (OVCAR-5): 4140 nM; GI50 (NCI-H322M): 3240 nM; GI50 (SK-MEL-28): 2670 nM; GI50 (HOP-92): 1540 nM; GI50 (SK-MEL-2): 3160 nM; GI50 (NCI-H23): 2900 nM; GI50 (NCI-H460): 3660 nM; GI50 (SNB-19): 3250 nM; GI50 (CAKI-1): 2710 nM; GI50 (HT29): 3770 nM; GI50 (HL-60(TB)): 2040 nM; GI50 (MCF7): 2840 nM; GI50 (OVCAR-8): 3330 nM; GI50 (M14): 4060 nM
4 | Cc1cc(C)c(S(=O)(=O)N2CCN(c3cc4c(cc3F)c(=O)c(C(=O)O)cn4C3CC3)CC2)c(C)c1 [Compound 6b] | 3170 nM | 3400 nM | 4570 nM | 5370 nM | 2340 nM | 1230 nM | 3290 nM | 2410 nM | 2800 nM | 3400 nM | > 100000 nM | 1970 nM | 2800 nM | 2890 nM | 2550 nM | 2370 nM | 2370 nM | 2230 nM | 2660 nM | 1420 nM | GI50 (NCI-H322M): 5190 nM; GI50 (HOP-92): 1520 nM; GI50 (NCI-H23): 3410 nM; GI50 (NCI-H460): 3040 nM; GI50 (SK-OV-3): 3020 nM; GI50 (SNB-19): 2560 nM; GI50 (CAKI-1): 1800 nM; GI50 (HT29): 3150 nM; GI50 (MCF7): 2590 nM; GI50 (OVCAR-8): 2870 nM; GI50 (M14): 4690 nM
5 | CCn1cc(C(=O)O)c(=O)c2cc(F)c(N3CCN(S(=O)(=O)c4cccc5ccccc45)CC3)cc21 [Compound 7a] | 3690 nM | 3970 nM | 7600 nM | 4260 nM | 2790 nM | 3710 nM | 3200 nM | 3190 nM | 2780 nM | 3570 nM | 2720 nM | 2520 nM | 3670 nM | 3290 nM | 3150 nM | 2600 nM | 2740 nM | 2870 nM | 2470 nM | 1630 nM | GI50 (K-562): 3930 nM; GI50 (PC-3): 2660 nM; GI50 (MALME-3M): 2830 nM; GI50 (MOLT-4): 4460 nM; GI50 (OVCAR-5): 3380 nM; GI50 (NCI-H322M): 2600 nM; GI50 (SK-MEL-28): 6090 nM; GI50 (HOP-92): 1250 nM; GI50 (SK-MEL-2): 3550 nM; GI50 (NCI-H23): 3130 nM; GI50 (NCI-H460): 3430 nM; GI50 (SK-OV-3): 3110 nM; GI50 (SNB-19): 3470 nM; GI50 (CAKI-1): 2330 nM; GI50 (HT29): 3950 nM; GI50 (HL-60(TB)): 2580 nM; GI50 (MCF7): 2720 nM; GI50 (OVCAR-8): 3090 nM; GI50 (M14): 4370 nM
